Test results as given in patent US10238713B2, “Cyclic tetrapeptides and therapeutic applications thereof” (LODZ UNIVERSITY OF TECHNOLOGY, priority 2010, dated 2019).
Non-standard residues stand in square brackets, D forms with d. Residues, ends and D or L forms follow the SMILES beside them. *: point of attachment. Bip = N[C@@H](Cc1ccc(-c2ccccc2)cc1)C(=O)O; β3hW = N[C@H](CC(=O)O)Cc1c[nH]c2ccccc12; Phe(4-F) = N[C@@H](Cc1ccc(F)cc1)C(=O)O; hPhe = N[C@@H](CCc1ccccc1)C(=O)O; β3hF = N[C@H](CC(=O)O)Cc1ccccc1; tBu = CC(C)(C)*

Key:
[1] = tested on: PHA-induced proliferation of human peripheral blood mononuclear cells (PBMC); assay: Proliferative response of PBMC to PHA (MTT); type: cell-based; conditions: four-day incubation, FIGS. 9A-9F
[2] = tested on: mice, carrageenan-induced foot pad edema; assay: Carrageenan-induced foot-pad edema test; type: in vivo, mouse; conditions: 4 h after carrageenan; peptides 250 μg i.p., DEX 25 μg i.p., 30 min before; FIGS. 17A-17C
Method: (§1) In this and the air-pouch test, 1.5 mg peptide was dissolved in 300 μl of DMSO, then in 0.9% NaCl to achieve the desired dose (250 μg/0.2 ml or 100 μg/0.2 ml). Carrageenan (Sigma) was dissolved in 0.9% aqueous NaCl (overnight). 50 μl of 2% carrageenan solution was injected intradermally into hind foot pads. The peptides were given in a single 250 μg dose (0.2 ml) per mouse intraperitoneally (i.p.), 30 min before carrageenan administration. Dexamethasone (DEX) (Dexaven, Polfa, Poland), a reference drug, was given i.p. in dose 25 μg per mouse. Control mice were administered i.p. appropriately diluted solvent (DMSO in aqueous NaCl) instead of peptides. The foot pads of “background” (BG) mice were injected with 50 μl of 0.9% aqueous NaCl. Foot pad edema was measured with a spring caliper, 2 h, 3 h and 4 h after administration of carrageenan. The results are presented in FIGS. 17A, 17B and 17C as mean values of the antigen-specific increase of the foot pad thickness measured in 5 mice in each experimental group and expressed in mm ±SE (only results from measurements 4 h following administration of carrageenan are presented in figures). Statistics: FIG. 17A: Control vs: DEX P=0.0001; 4B8M P=0.0001; P25 NS (P=1.0000); P28 NS (P=1.0000); P31 NS (P=0.0528); P35 P=0.0008 (ANOVA of Kruskal-Wallis); FIG. 17B: Statistics: Control vs: P22 NS (P=1.0000); P26 NS (P=1.0000); P27 P=0.0050; P30 P=0.0004; P33-b NS (P=1.0000); SP00-b P=0.0001; P00S-b NS (P=1.0000) (ANOVA of Kruskal-Wallis); FIG. 17C: Statistics: Control vs: P21 P=0.0147; P23-2 P=0.0083; P24 P=0.0001; P29 NS (P=0.9999); P32 P=0.0001; P33 NS (P=0.6806); P34 NS (P=0.1920) (ANOVA).

[3] = Solubility in the aqueous culture medium; type: physicochemical
Method: RPMI-1640 medium (Cibi/Life Technologies, UK), fetal calf serum (FCS, Gibco), DMSO, phytohemagglutinin A (PHA), lipopolysaccharide (LPS) from E. coli strain O111:B4 (Sigma), […]-2,5-diphenyltetrazolium bromide (MTT), SDS and DMF (Sigma). The culture medium consisted of RPMI-1640, 10% addition of FCS, L-glutamine, sodium pyruvate, 2-mercaptoetanol and antibiotics (streptomycin and penicillin). Cyclic tetrapeptides were initially dissolved in DMSO (5 mg/ml), the dissolved in the culture medium to the desired concentration.
The effects of the peptides on PMBC survival in 24h culture are presented in FIGS. 8A, 8B, 8C, 8D, 8E and 8F. Peptide 4B8M (compound I-A) was included as a reference compound. Appropriate dilutions of DMSO were added to control cultures. […] In the figures, P01=compound I-D, P02=compound I-E, P03=compound I-F, P04=compound I-G, P05=compound I-H, P06=compound I-J, P07=compound I-K, P08=compound I-L, P10a=compound I-M, P10b=compound I-N, P11=compound I-O, P21=compound I-R, P-21b=compound I-Q, P22=compound I-S, P23-2=compound I-U, P24=compound I-V, P25=compound I-X, P25-i=compound I-W, P26=compound I-Y, P27=compound I-Z, P28=compound I-AA, P29=compound I-AB, P30=compound I-AC, P31=compound I-AD, P32=compound I-AE, P33=compound I-AG, P33-b=compound I-AF, P34=compound I-AH, P35=compound I-AI, P00S-b=compound I-AJ, SP00-b=compound I-AL.

human PBMC = assay: Toxicity test: PBMC survival in 24 h culture (MTT); conditions: ANOVA, FIGS. 8A-8F (4B8M repeated per figure)
Method: PBMC were isolated by centrifugation on Ficoll-uropoline gradient (density 1.077 g/ml) (Lymphoprep; PAA Laboratories), at 800×g for 20 min at 4° C. The interphase cells, consisting of lymphocytes (20%) and monocytes (80%) were then washed three times with Hanks' medium and re-suspended in the culture medium at density of 2×10^6 cells/ml.
Appropriate dilutions of DMSO in RPMI 1640 medium were used as controls. Cell survival was determined by the MTT colorimetric method (Hansen et al., J. Immunol. Methods, 1989, pp. 203-210). The data are presented as a mean OD value from quadriplicate wells ±standard error (SE). The cultures “Control (−)” contained only cells in the culture medium.
The assay was performed per Hansen et al., J. Immunol. […] Briefly, 25 μl of MTT (5 mg/ml) stock solution was added per well at the end of cell incubation and the plates were incubated for 3 h in a cell culture incubator. Then, 100 μl of the extraction buffer (20% SDS with 50% DMF, pH 4.7) was added. After additional overnight incubation, the optical density was measured at 550 nm (Dynatech 5000).

[4] = tested on: mice, carrageenan air pouch; assay: Carrageenan air-pouch test (exudate cell number); type: in vivo, mouse; conditions: peptides 100 μg i.p. one hour before carrageenan, 24 h; FIGS. 18A-18B
Method: as §1
Air pouches were formed by subdermal injection into the dorsal region (in a halothane anesthesia) of 5 cm^3 of air (needle 23G x 11/4, 5 ml syringe). On day 3 the air pouches were given an additional 2 ml of air and an inflammatory process was elicited by an intra-pouch injection of 1% of carrageenan in 0.5 ml of 0.9% aqueous NaCl. The peptides were given i.p. at a dose of 100 μg one hour before carrageenan injection into the air pouch. The mice from the “background” (BG) group were given 0.9% aqueous NaCl i.p. and 0.9% aqueous NaCl into the air pouches. Control mice were given appropriately diluted DMSO i.p. and carrageenan into the air pouches. 24 h after carrageenan injection, the mice were sacrificed by cervical dislocation, the air pouches were supplemented with 1 ml of 0.9% aqueous NaCl and the exudates from the air pouches were aspirated using a syringe. The exudates were diluted with 0.9% aqueous NaCl and the cells were counted in a Bürker hemocytometer. Data are presented in FIGS. 18A and 18B as the mean values from 10 mice/group (cell number×10^6 per mouse) ±SE. Then the cells were centrifuged and 0.1 ml of the supernatant was saved for TNF-α determination (see Determination of TNF-α activity, above). The cell pellets were used to perform smears on microscopic glasses, which were stained with Giemsa and May-Grünwald reagents for evaluation of mast cell degranulation. Cell analysis was performed by a histologist using a light microscope and 1000× magnification. The content of intact and degranulated mast cells is given in percentage (mean values from 10 mice/group) ±SE. Statistics: FIG. 18A: BG vs Control P=0.0000; Control vs: DEX P=0.0034; 4B8M P=0.0005; P22 NS (P=0.7275); P26 P=0.0032; P27 NS (P=0.0659); P35 NS (P=1.0000) (ANOVA of Kruskal-Wallis); FIG. 18B: Control vs: P21 NS (P=0.322); P23-2 P=0.0020; P24 P=0.0001; P25 P=0.0418; P28 NS (P=0.3502); P29 NS (P=0.0582); P30 P=0.0006; P31 P=0.0078; P32 P=0.0340; P33 NS (P=0.9993); P34 NS (p=0.0566) (ANOVA).

[5] = tested on: concanavalin A-induced mouse splenocyte proliferation; assay: Proliferative response of splenocytes to concanavalin A (MTT); type: cell-based
Method: Spleens were pressed against a plastic screen into 0.83% NH4Cl solution to lyse erythrocytes (5 min incubation at room temperature). The cells were then washed twice with Hanks' medium, passed through glass wool column to remove debris, and re-suspended in the culture medium, referred to below as the “culture medium”, consisting of RPMI-1640, supplemented with 10% of fetal calf serum, L-glutamine, sodium pyruvate, 2-mercaptoethanol, streptomycin and penicillin (100 μg/ml). The cells were then distributed into 96-well flat-bottom tissue culture plates (Nunc) at a density of 2×10^5 cells/100 μl/well. Con A (2.5 μg/ml) was added to induce cell proliferation. The compounds were added to the cultures at doses of 1-100 μg/ml. After a three-day incubation, cell proliferation was determined using the colorimetric MTT method (Hansen M B, J Immunol Methods, 1989, 119, 203-210). The results were presented as the mean optical density (OD) at 550 nm ±SE from quadriplicate determinations (wells).

[6] = tested on: mouse splenocyte cultures, humoral immune response to SRBC; assay: Secondary humoral immune response in vitro to SRBC (AFC number); type: cell-based
Method: Mice were sensitized intraperitoneally with 0.2 ml of 5% (v/v) SRBC suspension. After four days spleens from these mice were isolated and single cell suspensions prepared by homogenization in PBS solution. After washing the cells in PBS by centrifugation, the cells were re-suspended in the culture medium at a density of 5×10^6 cells/ml. The cells were subsequently distributed to 24-well culture plates in 1 ml aliquots and 0.05 ml of 0.005% SRBC was added as the antigen to each well. The compounds were added to the cultures at the beginning of the four-day incubation period at concentration ranges of 1-100 μg/ml. The number of antibody-forming cells (AFC) in the cultures was determined using a method of local hemolysis in agar gel according to Mishell et al., J Exp Med, 1967, 126, 423-442.

splenocytes = assay: Toxicity test on splenocytes (24 h, MTT); type: cell-based, mouse; conditions: 100 μg/ml (printed 100 μg/m for I-C)
Method: Cell survival was determined by MTT colorimetric method. The results were presented as mean optical density (OD) at 550 nm from 4 wells. The viability of cells in respective compound concentrations was compared to appropriate DMSO control groups (100% survival), corresponding to respective compound concentrations.

| SMILES | solubility in the aqueous culture medium [3] | PHA-induced PBMC proliferation, P vs DMSO at appropriate dilution ([1]; 10 μg/ml) | PHA-induced PBMC proliferation, P vs DMSO at appropriate dilution ([1]; 100 μg/ml) | foot pad edema (increase of foot pad thickness), P vs Control [2] | PBMC survival, P vs DMSO at appropriate dilution (human PBMC; 10 μg/ml) | PBMC survival, P vs DMSO at appropriate dilution (human PBMC; 100 μg/ml) | air pouch exudate cell number, P vs Control [4] | effect on concanavalin A-induced mouse splenocyte proliferation ([5]; 50-100 μg/ml) | suppression of in vitro humoral immune response to SRBC ([6]; 10 μg/m as printed) | suppression of in vitro humoral immune response to SRBC ([6]; 100 μg/m as printed) | toxicity to splenocytes (splenocytes) | effect on concanavalin A-induced splenocyte proliferation ([5]; 100 μg/ml) | effect on concanavalin A-induced splenocyte proliferation ([5]; lower concentrations (below 100 μg/ml)) |
| --- | --- | --- | --- | --- | --- | --- | --- | --- | --- | --- | --- | --- | --- |
| CC(C)(C)OC[C@@H]1NC(=O)[C@@H]2CCCN2C(=O)[C@H](Cc2ccccc2)NC(=O)C[C@H](Cc2ccccc2)NC1=O [I-AJ] (cyclo(FPS(tBu)[β3hF])) | incomplete solubility | 1.0000 | 0.7035 | 1.0000 | 0.9962 | 0.9250 |  |  |  |  |  |  |  |
| O=C1C[C@H](Cc2ccccc2)NC(=O)[C@@H]2CCCN2C(=O)[C@@H]2CCCN2C(=O)C[C@H](Cc2ccccc2)N1 [I-C] (cyclo(PP[β3hF][β3hF])) |  |  |  |  |  |  |  | strong inhibitory effect | 33% | 80% | 70% |  |  |
| O=C1C[C@H](Cc2ccccc2)NC(=O)[C@@H]2CCCN2C(=O)[C@@H]2CCCN2C(=O)[C@H](Cc2ccc(-c3ccccc3)cc2)N1 [I-AH] (cyclo([Bip]PP[β3hF])) | incomplete solubility |  | 0.001861 | 0.1920 | 0.0005 | 0.0001 | 0.0566 |  |  |  |  |  |  |
| O=C1N[C@@H](Cc2ccccc2)CC(=O)N2CCC[C@H]2C(=O)N2CCC[C@H]2C(=O)N[C@H]1Cc1ccccc1 [I-B] (cyclo(F[β3hF]PP)) |  |  |  |  |  |  |  |  |  |  | 30% | weak antiproliferative effect | no such effect was observed |

Now from value to molecule, other results behind:

| solubility in the aqueous culture medium [3] | SMILES | PHA-induced PBMC proliferation, P vs DMSO at appropriate dilution ([1]; 10 μg/ml) | PHA-induced PBMC proliferation, P vs DMSO at appropriate dilution ([1]; 100 μg/ml) | foot pad edema (increase of foot pad thickness), P vs Control [2] | PBMC survival, P vs DMSO at appropriate dilution (human PBMC; 10 μg/ml) | PBMC survival, P vs DMSO at appropriate dilution (human PBMC; 100 μg/ml) | air pouch exudate cell number, P vs Control [4] | effect on concanavalin A-induced mouse splenocyte proliferation ([5]; 50-100 μg/ml) | suppression of in vitro humoral immune response to SRBC ([6]; 10 μg/m as printed) | suppression of in vitro humoral immune response to SRBC ([6]; 100 μg/m as printed) | toxicity to splenocytes (splenocytes) | effect on concanavalin A-induced splenocyte proliferation ([5]; 100 μg/ml) | effect on concanavalin A-induced splenocyte proliferation ([5]; lower concentrations (below 100 μg/ml)) |
| --- | --- | --- | --- | --- | --- | --- | --- | --- | --- | --- | --- | --- | --- |
| incomplete solubility | O=C1C[C@H](Cc2ccccc2)NC(=O)[C@@H]2CCCN2C(=O)[C@@H]2CCCN2C(=O)[C@H](CCc2ccccc2)N1 [I-AI] (cyclo(PP[β3hF][hPhe])) |  | 1.0000 | 0.0008 | 0.0222 | 1.0000 | 1.0000 |  |  |  |  |  |  |
| incomplete solubility | O=C1C[C@H](Cc2ccccc2)NC(=O)[C@@H]2CCCN2C(=O)[C@@H]2CCCN2C(=O)[C@H](Cc2ccc(F)cc2)N1 [I-X] (cyclo(PP[β3hF][Phe(4-F)])) |  | 1.0000 | 1.0000 | 0.8597 | 0.0001 | 0.0418 |  |  |  |  |  |  |
| incomplete solubility | O=C1C[C@H](Cc2c[nH]c3ccccc23)NC(=O)[C@@H]2CCCN2C(=O)[C@@H]2CCCN2C(=O)[C@H](Cc2ccccc2)N1 [I-AE] (cyclo(FPP[β3hW])) | 0.0127 | 0.0023 | 0.0001 | 0.9954 | 0.9984 | 0.0340 |  |  |  |  |  |  |
